For assay [1], the system named is human ES motor neurons carrying the ALS-causing SOD1^A4V mutation. Briefly: cells. The note with it: Homo sapiens, Neuron, 72 h, 72 h; for EC50 / Emax: CPA 33 μM; for EC50: read-out: EC50; for viability at 1 µM: CPA (33 μM) + compound (1 μM), read-out: Motor Neuron Survival, % untreated; for Emax: read-out: Emax (MN survival % untreated). The assay is classed as cell-based. The method, then:
Next, survival assays were performed with all the analogs at once to generate a low-variability dataset. All compounds were evaluated at concentrations ranging from 0.1-3.0 μM (five-point dilution) in three technical replicates and two biological replicates.

The target in another assay is T1, MLK3/MAP3K11 (Homo sapiens, UniProt Q16584).
T1 construct: purchased Reaction Biology Corp
Briefly: Radiolabeled ATP kinase assay (Reaction Biology Corp.), MLK3. The assay is classed as biochemical. The note with it: [Cmpd] 0.1 μM; 10 μM ATP. The method, then:
(§1) Meanwhile, the same analogs were analyzed in a radiolabeled ATP assay (10 μM ATP; Reaction Biology Corp.) to compare the extent to which they could inhibit the activity of HGK, MLK1, or MLK3 in a cell-free environment (Table S3 and S4).

Assay [2] concerns the target T2, panel of 60 human kinases (Homo sapiens, UniProt O75460).
T2 construct: purchased Reaction Biology Corp
The experiment in a line: Radiolabeled ATP kinase assay, panel of 60 kinases (Table S5). The format is biochemical. Conditions: ERN1/IRE1; 0.1 μM; 10 μM ATP; read-out: % Enzyme Activity (relative to DSMO controls). The method, then:
(§2) To better understand the biologically relevant targets of compound 1 and its analogs, a second round of cell-free kinase assays was performed. In this expanded assay, we selected ten analogs ranging from moderately to very strongly protective in the CPA assay. These analogs were evaluated for their ability to inhibit a selection of 60 kinases at 0.1 μM and 0.5 μM. […] RNAseq data were used to confirm the expression of each kinase in ES MNs (see Example 12).
(§3) RNAseq data were used to confirm the expression of each kinase in ES motor neurons (see Example 12).

Assay [3] addresses T3, panel of 60 human kinases (Homo sapiens, UniProt P11362).
T3 construct: purchased Reaction Biology Corp
Described as above. The assay is classed as biochemical. The note with it: FGFR1; 0.1 μM; 10 μM ATP; read-out: % Enzyme Activity (relative to DSMO controls). On the procedure:
as §2, §3

The target in assay [4] is T4, panel of 60 human kinases (Homo sapiens, UniProt P49759).
T4 construct: purchased Reaction Biology Corp
The assay is described as above. The format is biochemical. Conditions: CLK1; 0.1 μM; 10 μM ATP; read-out: % Enzyme Activity (relative to DSMO controls). On the procedure:
as §2, §3

Assay [5] concerns the target T5, panel of 60 human kinases (Homo sapiens, UniProt P49760).
T5 construct: purchased Reaction Biology Corp
Described as above. The format is biochemical. Conditions: CLK2; 0.1 μM; 10 μM ATP; read-out: % Enzyme Activity (relative to DSMO controls). On the procedure:
as §2, §3

The target of assay [6] is T6, panel of 60 human kinases (Homo sapiens, UniProt P49840).
T6 construct: purchased Reaction Biology Corp
Described as above. The assay is classed as biochemical. The note with it: GSK3a; 0.1 μM; 10 μM ATP; read-out: % Enzyme Activity (relative to DSMO controls). The method, then: as §2, §3

The target in assay [7] is T7, panel of 60 human kinases (Homo sapiens, UniProt P49841).
T7 construct: purchased Reaction Biology Corp
Described as above. The format is biochemical. Conditions: GSK3b; 0.1 μM; 10 μM ATP; read-out: % Enzyme Activity (relative to DSMO controls). On the procedure:
as §2, §3

Assay [8] addresses T8, panel of 60 human kinases (Homo sapiens, UniProt P53779).
T8 construct: purchased Reaction Biology Corp
The assay is described as above. The assay is classed as biochemical. The note with it: JNK3; 0.1 μM; 10 μM ATP; read-out: % Enzyme Activity (relative to DSMO controls). On the procedure:
as §2, §3

In assay [9] the target is T9, panel of 60 human kinases (Homo sapiens, UniProt Q00526).
T9 construct: purchased Reaction Biology Corp
Described as above. The format is biochemical. Conditions: CDK3/cyclin E; 0.1 μM; 10 μM ATP; read-out: % Enzyme Activity (relative to DSMO controls). The method, then:
as §2, §3

Assay [10] deals with T10, panel of 60 human kinases (Homo sapiens, UniProt Q00535).
T10 construct: purchased Reaction Biology Corp
The assay is described as above. The assay is classed as biochemical. Conditions: 0.1 μM, 10 μM ATP, read-out: % Enzyme Activity (relative to DSMO controls). The method, then:
as §2, §3

The target in assay [11] is T11, panel of 60 human kinases (Homo sapiens, UniProt Q00536).
T11 construct: purchased Reaction Biology Corp
The assay is described as above. The assay is classed as biochemical. The note with it: CDK16/cyclin Y (PCTAIRE); 0.1 μM; 10 μM ATP; read-out: % Enzyme Activity (relative to DSMO controls). On the procedure:
as §2, §3

The target in assay [12] is T12, panel of 60 human kinases (Homo sapiens, UniProt Q07002).
T12 construct: purchased Reaction Biology Corp
Described as above. The format is biochemical. The note with it: CDK18/cyclin Y (PCTK3); 0.1 μM; 10 μM ATP; read-out: % Enzyme Activity (relative to DSMO controls). On the procedure:
as §2, §3

Assay [13] concerns the target T13, panel of 60 human kinases (Homo sapiens, UniProt Q96GD4).
T13 construct: purchased Reaction Biology Corp
The assay is described as above. Conditions: Aurora B; 0.1 μM; 10 μM ATP; read-out: % Enzyme Activity (relative to DSMO controls). The assay is classed as biochemical. On the procedure:
as §2, §3

Assay [14] deals with T14, panel of 60 human kinases (Homo sapiens, UniProt Q9UM73).
T14 construct: purchased Reaction Biology Corp
The assay is described as above. The assay is classed as biochemical. Conditions: ALK; 0.1 μM; 10 μM ATP; read-out: % Enzyme Activity (relative to DSMO controls). The method, then:
as §2, §3

A further assay has as its target HGK/MAP4K4 (Homo sapiens, UniProt O95819). The experiment in a line: Radiolabeled ATP kinase assay (Reaction Biology Corp.), HGK. The format is biochemical. More on the design: purchased Reaction Biology Corp. The note with it: 10 μM ATP, read-out: % Enzyme Activity (relative to DMSO controls), HGK/MAP4K4, Data 1; for remaining activity at 0.025 µM: [Cmpd] 0.025 μM; for remaining activity at 0.1 µM: [Cmpd] 0.1 μM. The method, then:
as §1

Here are results for 5 compounds from US12227500B2, “Substituted pyrrolo[2,3-b]pyridines for suppressing toxic endoplasmic reticulum stress” (THE TRUSTEES OF COLUMBIA UNIVERSITY IN THE CITY OF NEW YORK, priority 2018, dated 2025).

Read-outs that look alike come from different tables or passages of the source.

T5 sequence (P49760 whole entry): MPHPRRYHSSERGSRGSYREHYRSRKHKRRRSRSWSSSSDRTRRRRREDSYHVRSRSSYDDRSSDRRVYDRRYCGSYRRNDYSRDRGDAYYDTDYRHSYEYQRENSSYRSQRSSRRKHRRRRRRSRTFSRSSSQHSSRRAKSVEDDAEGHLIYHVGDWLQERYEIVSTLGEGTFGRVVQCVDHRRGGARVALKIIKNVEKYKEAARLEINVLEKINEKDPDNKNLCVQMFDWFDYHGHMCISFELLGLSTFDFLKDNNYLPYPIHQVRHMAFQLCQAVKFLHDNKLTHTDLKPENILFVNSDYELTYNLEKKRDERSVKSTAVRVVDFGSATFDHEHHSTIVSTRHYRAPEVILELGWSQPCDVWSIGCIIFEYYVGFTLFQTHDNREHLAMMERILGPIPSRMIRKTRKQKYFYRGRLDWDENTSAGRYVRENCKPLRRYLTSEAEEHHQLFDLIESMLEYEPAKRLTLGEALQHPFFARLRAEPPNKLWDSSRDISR
T13 sequence (Q96GD4 whole entry): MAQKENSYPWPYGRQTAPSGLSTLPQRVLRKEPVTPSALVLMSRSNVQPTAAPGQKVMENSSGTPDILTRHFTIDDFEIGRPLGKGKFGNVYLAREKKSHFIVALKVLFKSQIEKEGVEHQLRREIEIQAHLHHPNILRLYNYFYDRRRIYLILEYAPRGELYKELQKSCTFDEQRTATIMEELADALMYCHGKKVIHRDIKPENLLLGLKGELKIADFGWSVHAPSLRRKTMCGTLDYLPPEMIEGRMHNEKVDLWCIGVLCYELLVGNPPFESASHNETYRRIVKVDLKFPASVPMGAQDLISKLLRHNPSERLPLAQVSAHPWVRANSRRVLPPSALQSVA
T12 sequence (Q07002 whole entry): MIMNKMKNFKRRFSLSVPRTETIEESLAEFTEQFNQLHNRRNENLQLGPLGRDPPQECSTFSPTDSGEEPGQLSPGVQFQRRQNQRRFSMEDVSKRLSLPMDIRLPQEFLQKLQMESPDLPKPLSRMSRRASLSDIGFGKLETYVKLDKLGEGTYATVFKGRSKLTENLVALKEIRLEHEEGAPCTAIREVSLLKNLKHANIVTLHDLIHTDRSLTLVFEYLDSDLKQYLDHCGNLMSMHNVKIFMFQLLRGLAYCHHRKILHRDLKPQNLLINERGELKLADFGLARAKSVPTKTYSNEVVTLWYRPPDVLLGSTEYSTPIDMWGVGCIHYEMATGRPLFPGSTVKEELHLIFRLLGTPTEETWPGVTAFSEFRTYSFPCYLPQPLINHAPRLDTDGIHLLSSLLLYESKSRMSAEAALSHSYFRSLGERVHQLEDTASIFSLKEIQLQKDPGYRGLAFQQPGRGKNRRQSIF
T8 sequence (P53779 whole entry): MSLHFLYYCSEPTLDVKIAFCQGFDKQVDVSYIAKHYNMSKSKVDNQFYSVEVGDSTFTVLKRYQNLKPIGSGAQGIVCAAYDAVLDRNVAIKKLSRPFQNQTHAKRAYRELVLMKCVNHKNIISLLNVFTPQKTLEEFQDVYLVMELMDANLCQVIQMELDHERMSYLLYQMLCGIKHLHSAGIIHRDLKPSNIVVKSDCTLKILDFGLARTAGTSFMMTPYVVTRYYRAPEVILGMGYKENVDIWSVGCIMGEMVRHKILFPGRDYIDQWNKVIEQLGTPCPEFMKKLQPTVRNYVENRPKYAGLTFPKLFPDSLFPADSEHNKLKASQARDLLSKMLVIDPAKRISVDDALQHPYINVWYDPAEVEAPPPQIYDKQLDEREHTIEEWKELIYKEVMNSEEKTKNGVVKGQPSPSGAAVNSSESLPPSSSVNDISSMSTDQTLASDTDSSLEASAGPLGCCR
T9 sequence (Q00526 whole entry): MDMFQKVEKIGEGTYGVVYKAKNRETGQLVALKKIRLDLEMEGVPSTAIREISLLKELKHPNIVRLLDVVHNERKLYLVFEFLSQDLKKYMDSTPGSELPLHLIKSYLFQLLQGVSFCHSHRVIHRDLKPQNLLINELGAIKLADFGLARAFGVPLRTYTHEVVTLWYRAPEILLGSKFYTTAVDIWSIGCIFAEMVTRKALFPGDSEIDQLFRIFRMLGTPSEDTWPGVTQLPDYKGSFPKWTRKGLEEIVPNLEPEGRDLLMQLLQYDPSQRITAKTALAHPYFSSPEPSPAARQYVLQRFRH
T1 sequence (Q16584 whole entry): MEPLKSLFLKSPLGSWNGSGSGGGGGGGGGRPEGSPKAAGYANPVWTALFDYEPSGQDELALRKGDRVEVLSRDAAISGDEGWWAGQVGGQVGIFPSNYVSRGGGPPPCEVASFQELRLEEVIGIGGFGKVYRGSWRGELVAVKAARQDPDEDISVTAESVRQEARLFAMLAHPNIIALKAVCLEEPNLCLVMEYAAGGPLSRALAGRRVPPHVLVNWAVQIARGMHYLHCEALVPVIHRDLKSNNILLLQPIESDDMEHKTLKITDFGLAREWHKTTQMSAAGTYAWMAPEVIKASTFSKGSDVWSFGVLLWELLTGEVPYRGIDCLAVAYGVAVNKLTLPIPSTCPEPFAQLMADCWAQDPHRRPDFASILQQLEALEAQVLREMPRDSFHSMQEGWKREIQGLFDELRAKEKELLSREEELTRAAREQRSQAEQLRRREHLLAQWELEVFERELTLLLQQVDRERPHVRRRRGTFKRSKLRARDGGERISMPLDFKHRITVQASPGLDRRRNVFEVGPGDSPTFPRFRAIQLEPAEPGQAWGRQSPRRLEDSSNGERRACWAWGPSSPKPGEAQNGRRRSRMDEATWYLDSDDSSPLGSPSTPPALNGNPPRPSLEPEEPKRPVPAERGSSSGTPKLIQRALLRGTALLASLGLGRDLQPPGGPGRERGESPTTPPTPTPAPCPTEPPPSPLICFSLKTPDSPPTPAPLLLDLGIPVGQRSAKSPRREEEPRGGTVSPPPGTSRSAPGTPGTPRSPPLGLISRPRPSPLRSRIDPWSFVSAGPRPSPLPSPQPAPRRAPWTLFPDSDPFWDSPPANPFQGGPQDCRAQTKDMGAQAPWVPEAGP
T14 sequence (Q9UM73 19-1620): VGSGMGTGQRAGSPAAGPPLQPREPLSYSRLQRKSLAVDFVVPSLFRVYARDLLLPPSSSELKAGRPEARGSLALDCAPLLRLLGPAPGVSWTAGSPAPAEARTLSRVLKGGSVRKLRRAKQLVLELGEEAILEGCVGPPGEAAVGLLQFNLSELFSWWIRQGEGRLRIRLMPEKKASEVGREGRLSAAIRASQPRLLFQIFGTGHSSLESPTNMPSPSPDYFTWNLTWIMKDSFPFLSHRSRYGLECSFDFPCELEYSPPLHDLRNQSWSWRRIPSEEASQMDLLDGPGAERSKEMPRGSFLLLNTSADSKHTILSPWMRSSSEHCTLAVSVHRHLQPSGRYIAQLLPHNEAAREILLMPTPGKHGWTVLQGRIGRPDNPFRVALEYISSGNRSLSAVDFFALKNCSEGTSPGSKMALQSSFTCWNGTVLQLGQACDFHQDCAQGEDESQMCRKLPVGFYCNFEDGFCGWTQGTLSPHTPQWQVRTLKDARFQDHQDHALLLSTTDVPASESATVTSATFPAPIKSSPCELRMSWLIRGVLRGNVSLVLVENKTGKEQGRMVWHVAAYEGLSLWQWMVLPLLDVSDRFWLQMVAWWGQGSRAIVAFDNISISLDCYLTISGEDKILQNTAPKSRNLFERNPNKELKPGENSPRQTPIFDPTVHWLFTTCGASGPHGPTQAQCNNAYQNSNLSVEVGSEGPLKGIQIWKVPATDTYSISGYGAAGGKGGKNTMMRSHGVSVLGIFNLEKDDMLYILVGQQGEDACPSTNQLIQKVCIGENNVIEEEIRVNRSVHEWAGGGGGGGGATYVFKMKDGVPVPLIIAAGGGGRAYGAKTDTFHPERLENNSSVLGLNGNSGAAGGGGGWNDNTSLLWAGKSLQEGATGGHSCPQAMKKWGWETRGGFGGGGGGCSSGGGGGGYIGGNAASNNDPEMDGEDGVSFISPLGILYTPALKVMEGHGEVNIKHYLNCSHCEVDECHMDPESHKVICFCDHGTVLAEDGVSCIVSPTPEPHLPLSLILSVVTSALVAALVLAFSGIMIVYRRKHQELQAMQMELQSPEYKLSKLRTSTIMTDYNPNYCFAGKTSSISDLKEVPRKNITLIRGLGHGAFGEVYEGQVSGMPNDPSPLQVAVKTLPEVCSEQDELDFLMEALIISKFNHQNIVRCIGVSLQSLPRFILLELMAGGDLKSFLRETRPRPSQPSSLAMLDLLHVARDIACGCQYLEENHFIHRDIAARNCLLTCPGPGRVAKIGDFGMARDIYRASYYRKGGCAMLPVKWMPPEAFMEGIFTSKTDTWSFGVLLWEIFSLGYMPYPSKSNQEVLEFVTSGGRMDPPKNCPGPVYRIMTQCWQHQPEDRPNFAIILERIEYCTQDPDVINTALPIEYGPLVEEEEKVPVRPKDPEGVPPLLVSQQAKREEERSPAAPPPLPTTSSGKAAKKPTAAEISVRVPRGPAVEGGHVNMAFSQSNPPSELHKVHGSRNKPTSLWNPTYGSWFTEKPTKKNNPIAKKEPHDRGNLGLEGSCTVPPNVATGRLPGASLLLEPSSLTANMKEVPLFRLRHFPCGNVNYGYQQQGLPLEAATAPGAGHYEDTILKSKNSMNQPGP
T11 sequence (Q00536 whole entry): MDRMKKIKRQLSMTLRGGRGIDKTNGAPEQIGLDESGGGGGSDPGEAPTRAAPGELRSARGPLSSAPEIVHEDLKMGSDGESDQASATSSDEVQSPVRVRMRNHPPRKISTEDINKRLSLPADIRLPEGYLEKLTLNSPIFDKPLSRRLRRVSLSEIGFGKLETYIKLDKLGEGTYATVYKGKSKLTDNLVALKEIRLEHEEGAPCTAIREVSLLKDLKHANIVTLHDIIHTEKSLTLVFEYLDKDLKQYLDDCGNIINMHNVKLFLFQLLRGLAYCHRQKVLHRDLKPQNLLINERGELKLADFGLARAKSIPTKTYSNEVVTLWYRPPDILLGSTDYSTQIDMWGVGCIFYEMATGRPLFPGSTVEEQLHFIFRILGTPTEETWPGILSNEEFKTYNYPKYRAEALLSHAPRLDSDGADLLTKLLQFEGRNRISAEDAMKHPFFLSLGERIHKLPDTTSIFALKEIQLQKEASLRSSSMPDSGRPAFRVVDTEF

Turning to `CN1CCN(Cc2ccc(-c3cnc4[nH]cc(-c5ccccc5Cl)c4c3)cc2)CC1` [Compound 7as, 3-(2-Chlorophenyl)-5-(4-((4-methylpiperazin-1-yl)methyl)phenyl)-1H-pyrrolo[2,3-b]pyridine], the EC50 in [1] is 329 nM. In assay [1], the viability at 1 µM turned out to be 80.8%. Besides, in assay [1], the Emax amounted to 80.8%. Besides, the “% Enzyme Activity Remaining (relative to DMSO controls), MLK3/MAP3K11, Data 1” value on MLK3/MAP3K11 is 49.99%. On MLK3/MAP3K11, the “% Enzyme Activity Remaining (relative to DMSO controls), MLK3/MAP3K11, Data 2” value is listed as 51.55%. Moreover, the remaining activity at 0.1 µM is 97.5% in assay [2]; 77.9% in [3]; 44.6% in [4]; 22.5% in [5]; 96% in assay [6]; 98.9% in assay [7]. Moreover, the remaining activity at 0.1 µM came out at 111% in [8]; 85.5% in [9]; 48.6% in [10] (CDK5/p25); 36% in [10] (CDK5/p35); 75.2% in [11]; 95.5% in assay [12]. In addition, the remaining activity at 0.1 µM turned out to be 82.5% in assay [13], 70.5% in assay [14] and 3.61% at HGK/MAP4K4. Besides, the remaining activity at 0.025 µM at HGK/MAP4K4 was 17.6%.
Regarding `COc1ccccc1-c1c[nH]c2ncc(-c3ccc(CN4CCN(C)CC4)cc3)cc12` [Compound 7at, 3-(2-Methoxyphenyl)-5-(4-((4-methylpiperazin-1-yl)methyl)phenyl)-1H-pyrrolo[2,3-b]pyridine], the EC50 in [1] stood at 297 nM. In addition, in [1], the viability at 1 µM came out at 67.5%. In addition, the Emax in assay [1] amounted to 85%. For the same compound, on MLK3/MAP3K11, the “% Enzyme Activity Remaining (relative to DMSO controls), MLK3/MAP3K11, Data 1” value turned out to be 24.55%. For the same compound, at MLK3/MAP3K11, the “% Enzyme Activity Remaining (relative to DMSO controls), MLK3/MAP3K11, Data 2” value was 21.30%. Also, the remaining activity at 0.1 µM is 101% in assay [2]; 96.4% in assay [3]; 78.4% in assay [4]; 90.9% in assay [5]; 82.8% in [6]; 97.3% in [7]. Moreover, the remaining activity at 0.1 µM stood at 104% in assay [8]; 72.7% in assay [9]; 43.1% in assay [10] (CDK5/p25); 31.9% in assay [10] (CDK5/p35); 76.9% in [11]; 97.1% in [12]. For the same compound, the remaining activity at 0.1 µM in [13] came to 87.8%; in assay [14], 77.8%; at HGK/MAP4K4 it was 4.83%. Besides, on HGK/MAP4K4, the remaining activity at 0.025 µM was 29.3%.
For `CN1CCN(Cc2ccc(-c3cnc4[nH]cc(-c5ccc6c(c5)OCCO6)c4c3)cc2)CC1` [Compound 7d, 3-(2,3-Dihydrobenzo[b][1,4]dioxin-6-yl)-5-(4-((4-methylpiperazin-1-yl)methyl)phenyl)-1H-pyrrolo[2,3-b]pyridine], the EC50 in [1] amounted to 327 nM. Also, the viability at 1 µM in [1] was determined as 72.9%. In [1], the Emax amounted to 72.9%. In addition, the “% Enzyme Activity Remaining (relative to DMSO controls), MLK3/MAP3K11, Data 1” value on MLK3/MAP3K11 was 25.04%. The “% Enzyme Activity Remaining (relative to DMSO controls), MLK3/MAP3K11, Data 2” value on MLK3/MAP3K11 is recorded as 18.84%. The remaining activity at 0.1 µM stood at 107% in [2]; 93.2% in assay [3]; 1.66% in assay [4]; 2.71% in [5]; 13.6% in assay [6]; 30.9% in assay [7]. The remaining activity at 0.1 µM in assay [8] was 120%; in assay [9], 76.7%; in assay [10] (CDK5/p25), 16.4%; in [10] (CDK5/p35), 14.2%; in [11], 58%; in [12], 82.8%. Besides, the results for the remaining activity at 0.1 µM (in assay [13]; in [14]; at HGK/MAP4K4) were 83.5%, 73.8% and 4.25%, respectively. For the same compound, on HGK/MAP4K4, the remaining activity at 0.025 µM is 19.6%.
Consider `CN1CCN(Cc2ccc(-c3cnc4[nH]cc(-c5ccncc5)c4c3)cc2)CC1` [Compound 7n, 5-(4-((4-Methylpiperazin-1-yl)methyl)phenyl)-3-(pyridin-4-yl)-1H-pyrrolo[2,3-b]pyridine], for which the EC50 in assay [1] is 483 nM. Further, the viability at 1 µM in assay [1] was 36.3%. The Emax in assay [1] was 36.3%. Moreover, the “% Enzyme Activity Remaining (relative to DMSO controls), MLK3/MAP3K11, Data 1” value at MLK3/MAP3K11 is 91.26%. Besides, at MLK3/MAP3K11, the “% Enzyme Activity Remaining (relative to DMSO controls), MLK3/MAP3K11, Data 2” value is reported as 92.62%. Further, the remaining activity at 0.1 µM in assay [2] was found to be 107%; in assay [3] it was 100%; in [4], 34.9%; in assay [5], 23.6%; in assay [6] it was 75.3%; in assay [7], 90.7%. The remaining activity at 0.1 µM in assay [8] came out at 115%; in assay [9], 72.3%; in assay [10] (CDK5/p25) it was 69.2%; in assay [10] (CDK5/p35) it was 57.5%; in assay [11], 21.5%; in [12], 24%. The values for the remaining activity at 0.1 µM (in assay [13]; in [14]; on HGK/MAP4K4) were 86.9%, 94.1% and 29.9%, respectively. Moreover, the remaining activity at 0.025 µM on HGK/MAP4K4 was 65.7%.
`CN1CCN(Cc2ccc(-c3cnc4[nH]cc(-c5ccoc5)c4c3)cc2)CC1` [Compound 7w, 3-(Furan-3-yl)-5-(4-((4-methylpiperazin-1-yl)methyl)phenyl)-1H-pyrrolo[2,3-b]pyridine]: the EC50 in [1] came to 1370 nM. Besides, the viability at 1 µM in assay [1] turned out to be 46.6%. In assay [1], the Emax was 0.42%. The “% Enzyme Activity Remaining (relative to DMSO controls), MLK3/MAP3K11, Data 1” value at MLK3/MAP3K11 is on record as 75.10%. Also, the “% Enzyme Activity Remaining (relative to DMSO controls), MLK3/MAP3K11, Data 2” value on MLK3/MAP3K11 amounted to 76.98%. For the same compound, the remaining activity at 0.1 µM in [2] came to 102%; in assay [3], 93.1%; in [4] it was 81.9%; in [5] it was 59.2%; in assay [6] it was 75.3%; in assay [7], 85.1%. Further, the remaining activity at 0.1 µM came to 113% in [8]; 93.7% in assay [9]; 89.4% in assay [10] (CDK5/p25); 82.2% in assay [10] (CDK5/p35); 80.8% in assay [11]; 94.5% in assay [12]. Besides, the figures for the remaining activity at 0.1 µM (in assay [13]; in assay [14]; at HGK/MAP4K4) were 89.9%, 89.7% and 4.46%, respectively. The remaining activity at 0.025 µM on HGK/MAP4K4 turned out to be 29%.
